These are literature values, as cited in patent US20220323445A1, “REDUCING IMMUNOGENICITY TO PEGLOTICASE” (Horizon Therapeutics Ireland DAC, priority 2020, published 2022).

For data set [1] the following is noted: prophylaxis of gout; cited from earlier work.
The conditions of data set [2]: patients treated with allopurinol; cited from earlier work.

Regarding `COc1cc2c(c(OC)c1OC)-c1ccc(OC)c(=O)cc1[C@@H](NC(C)=O)CC2` [colchicine], the pharyngolaryngeal pain in data set [1] is listed as 3%.

Take `Oc1ncnc2[nH]ncc12` [allopurinol]: in data set [2], the “patients who develop allergic reactions” value is “Approximately 2%” and the severe hypersensitivity syndrome result was “about 0.4%”.
